The values that follow come from US20200038399A1, “FORMULATIONS, METHODS, KIT, AND DOSAGE FORMS FOR TREATING BACTERIAL INFECTION” (Motif BioSciences Inc., priority 2016, published 2020).

The subject of assay [1] is S. aureus 101. Description: MIC determination. It is filed as cell-based, Staphylococcus aureus. Conditions: Staphylococcus aureus, 101, 18 h; read-out: Minimum inhibitory concentrations (MIC). How it is done: (§1) Minimum inhibitory concentration (MIC) determination.
(§2) In order to choose the appropriate concentrations to be tested in the checkerboard experiments, minimum inhibitory concentrations (MICs) were determined first. […] Table 6) in microtiter plates. Stock solutions (10 mg/ml) of reference antibiotics were prepared in DMSO (except for tobramycin, gentamicin, lomefloxacin, tetracycline) and stored at 4° C. The bacteria were grown in Mueller-Hinton Broth (BBL Mueller-Hinton Broth II, cation adjusted). S. pneumoniae was grown in Mueller-Hinton Broth supplemented with 5% (v/v) lysed sheep blood. For the growth of H. influenzae HTM (Haemophilus test medium) was used containing Mueller-Hinton broth, yeast extract ([…], Difco) and supplemented with NAD and hematin (HTM Supplement, Oxoid SR0158E). M. catarrhalis was grown in Brain Heart Infusion medium (Oxoid). The bacteria were incubated for 18 hours at 37° C. in ambient air except for S. pneumoniae, H. influenzae and M. catarrhalis, which were incubated in the presence of 5% CO2. The MIC was determined as the lowest concentration of an individual drug that lead to no visible growth.

Assay [2] relates to S. pneumoniae 1/1. As to the kind of experiment: MIC determination. It is filed as cell-based, Streptococcus pneumoniae. Conditions: Streptococcus pneumoniae; S. pneumoniae 1/1; 18 hours at 37° C., 5% CO2; read-out: Minimum inhibitory concentrations (MIC). How it is done: as §1, §2
Assay [3] concerns Moraxella catarrhalis RA 21. As to the kind of experiment: checkerboard synergy assay with iclaprim. Type of assay: cell-based. To be noted: antibiotic in combination with iclaprim; M. catarrhalis RA 21. How it is done: (§3) The synergistic potential of iclaprim against Gram-positive and Gram-negative bacteria was determined using the checkerboard assay as described in Eliopoulos GM and Moellering, Jr. RC (1991), Antimicrobial combinations, pp. 432-492, in V. Lorian (ed.), Antibiotics in laboratory medicine, 3rd Ed., The Williams & Wilkins Co., Baltimore, the entire disclosure of which is herein incorporated by reference, allowing multiple test concentrations of iclaprim to be assayed in the presence of various concentrations of the other antibiotic in microtiter plates. The same growth media and conditions were used as described in 3.2 below.
(§4) Two different dilutions were used for iclaprim depending on the MIC determined for the bacterium. […] Iclaprim and the other antibiotic being tested were also dispensed alone in the last row and in the last column, respectively, as controls.
(§5) The Fractional Inhibitory Concentrations (FIC) for each added agent were calculated and used to determine the sum of FIC (ΣFIC) indicative of the synergistic potential of a given combination as described in Veyssier P. (1999), Inhibiteurs de la dihydrofolate reductase, nitrohétérocycles (furanes) et 8-hydroxyquinoleines, pp. 995-1027, in A. Bryskier (ed.), Antibiotiques agents antibatériens et antifongiques, 1st Ed., Ellipses Edition Marketing SA, Paris, the entire disclosure of which is herein incorporated by reference. Synergy was defined whereby the ΣFIC was <0.5, indifference (no synergy nor antagonism) whereby ΣFIC was ≥0.5 but ≤4, and antagonism whereby ΣFIC was >4. Additivity as a special form of indifference was defined whereby the ΣFIC was ≥0.5 but <1, for example as described in Stevens, D L et al. (1998), In vitro antimicrobial effects of various combinations of penicillin and clindamycin against four strains of Streptococcus pyogenes, J. Antimicrob. Chemother. 42: 1266-1268, the entire disclosure of which is herein incorporated by reference.

Assay [4] relates to Klebsiella pneumoniae ATCC 33495. As to the kind of experiment: checkerboard synergy assay with iclaprim. Conditions: antibiotic in combination with iclaprim; K. pneumoniae 33495. It is filed as cell-based. How it is done:
as §3, §4, §5

Assay [5] concerns Streptococcus pneumoniae ATCC 49619. Description: checkerboard synergy assay with iclaprim. It is filed as cell-based. To be noted: antibiotic in combination with iclaprim; S. pneumoniae 49619. How it is done:
as §3, §4, §5

Assay [6] deals with Staphylococcus aureus ATCC 25923. As to the kind of experiment: checkerboard synergy assay with iclaprim. Type of assay: cell-based. Conditions: antibiotic in combination with iclaprim; S. aureus 25923. How it is done:
as §3, §4, §5

For assay [7], the system named is Haemophilus influenzae ATCC 49766. As to the kind of experiment: checkerboard synergy assay with iclaprim. Type of assay: cell-based. To be noted: antibiotic in combination with iclaprim; H. influenzae 49766. How it is done: as §3, §4, §5
For assay [8], the system named is Moraxella catarrhalis RA 21. As to the kind of experiment: MIC determination. It is filed as cell-based. Conditions: Moraxella catarrhalis, RA21; M. catarrhalis RA 21; 18 hours at 37° C., 5% CO2; read-out: Minimum inhibitory concentrations (MIC). How it is done:
as §1, §2

Assay [9] concerns Klebsiella pneumoniae ATCC 33495. As to the kind of experiment: MIC determination. Conditions: Klebsiella pneumoniae, ATCC33495; K. pneumonia 33495; 18 hours at 37° C.; read-out: Minimum inhibitory concentrations (MIC). It is filed as cell-based. How it is done: as §1, §2
For assay [10], the system named is Streptococcus pneumoniae ATCC 49619. Description: MIC determination. Type of assay: cell-based. To be noted: Streptococcus pneumoniae, ATCC49619; S. pneumoniae 49619; 18 hours at 37° C., 5% CO2; read-out: Minimum inhibitory concentrations (MIC). How it is done: as §1, §2
Assay [11] deals with Staphylococcus aureus ATCC 25923. Description: MIC determination. It is filed as cell-based. To be noted: Staphylococcus aureus, ATCC25923; S. aureus 25923; 18 hours at 37° C.; read-out: Minimum inhibitory concentrations (MIC). How it is done: as §1, §2
In assay [12] the test system is Haemophilus influenzae ATCC 49766. As to the kind of experiment: MIC determination. To be noted: Haemophilus influenzae, ATCC49766; H. Influenza 49766; 18 hours at 37° C., 5% CO2; read-out: Minimum inhibitory concentrations (MIC). Type of assay: cell-based. How it is done: as §1, §2
In assay [13] the test system is S. aureus 101. Description: checkerboard synergy assay with iclaprim. It is filed as cell-based, Staphylococcus aureus. To be noted: antibiotic in combination with iclaprim. How it is done:
as §3, §4, §5

Assay [14] relates to S. pneumoniae 1/1. Description: checkerboard synergy assay with iclaprim. It is filed as cell-based, Streptococcus pneumoniae. Conditions: antibiotic in combination with iclaprim. How it is done:
as §3, §4, §5

As to `CO[C@@H]1[C@@H](OC(N)=O)[C@@H](O)[C@H](Oc2ccc3c(O)c(NC(=O)c4ccc(O)c(CC=C(C)C)c4)c(=O)oc3c2C)OC1(C)C` [Novobiocin], the MIC in assay [1] turned out to be 0.25 µg/mL; in [2], 4 µg/mL; in [8], 0.25 µg/mL; in assay [9], 128 µg/mL; in assay [10], 2 µg/mL; in [11], 0.5 µg/mL. Also, the MIC in assay [12] came out at 0.25 µg/mL. The “Con (Conclusion)” value in assay [3], in assay [4] and in assay [7] was “Ind (Indifference (Ind))” in each case. The “Σ FIC” value in [3] was 1.00-1.05; in assay [4], 1.00-1.25; in assay [5], 0.75-1.13; in assay [6], 1.02-1.50; in [7] it was 1.03-1.50; in assay [13] it was 1.03-1.50. Also, in assay [14], the “Σ FIC” value is given as 1.03-1.50.
`CCC[C@@H]1C[C@@H](C(=O)N[C@@H]([C@H]2O[C@H](SC)[C@H](O)[C@@H](O)[C@H]2O)[C@H](C)Cl)N(C)C1` [Clindamycin]: the MIC is 0.25 µg/mL in [1]; 0.125 µg/mL in [2]; 4 µg/mL in assay [8]; more than 128 µg/mL in assay [9]; 0.125 µg/mL in assay [10]; 0.25 µg/mL in [11]. Besides, in [12], the MIC turned out to be 8 µg/mL. Besides, the “Con (Conclusion)” value in assay [3], in assay [4] and in assay [7] was “Ind (Indifference (Ind))” each time. Moreover, the “Σ FIC” value is 1.00-1.25 in assay [3]; 1.01-1.50 in assay [4]; 1.00-1.25 in assay [5]; 2.02-2.48 in assay [6]; 1.13-1.50 in assay [7]; 2.03-2.50 in [13]. For the same compound, in assay [14], the “Σ FIC” value was 0.63-1.06.
For `NC[C@H]1O[C@H](O[C@H]2[C@H](O)[C@@H](O[C@H]3O[C@H](CO)[C@@H](O)[C@H](N)[C@H]3O)[C@H](N)C[C@@H]2N)[C@H](N)C[C@@H]1O` [Tobramycin], the MIC in [1] is more than 128 µg/mL; in [2] it was 32 µg/mL; in assay [8], 4 µg/mL; in assay [9], 1 µg/mL; in assay [10] it was 32 µg/mL; in assay [11], 0.5 µg/mL. Moreover, the MIC in assay [12] came to 0.5 µg/mL. The “Con (Conclusion)” value in [3] is recorded as “Ad (Additivity (Ad))”; in assay [4], “Ad (Additivity (Ad))”; in assay [7], “Ind (Indifference (Ind))”. Besides, the “Σ FIC” value in assay [3] is 0.63-1.25; in [4], 0.52-1.13; in [5], 1.00-1.25; in assay [6] it was 0.99-1.25; in assay [7] it was 1.02-1.50; in assay [13], 1.01-1.50. Also, the “Σ FIC” value in assay [14] is 0.63-1.13.
In the case of `CCn1cc(C(=O)O)c(=O)c2cc(F)c(N3CCNC(C)C3)c(F)c21` (centres unmarked) [Lomefloxacin], the MIC in assay [1] was determined as 128 µg/mL; in assay [2] it was 8 µg/mL; in assay [8], 0.5 µg/mL; in assay [9], 4 µg/mL; in assay [10], 8 µg/mL; in assay [11], 1 µg/mL. In addition, the MIC in assay [12] was 0.125 µg/mL. Further, the entries for the “Con (Conclusion)” value in assay [3], in [4] and in assay [7] were “Ad (Additivity (Ad))”, “Ind (Indifference (Ind))” and “Ind (Indifference (Ind))”, respectively. The “Σ FIC” value in assay [3] is recorded as 0.63-1.13; in assay [4] it was 1.13-1.50; in [5] it was 0.75-1.13; in [6] it was 1.06-1.50; in [7], 1.06-1.50; in assay [13], 1.02-1.50. In addition, the “Σ FIC” value in assay [14] is 0.75-1.13.
